Values quoted from earlier work, collected in patent US20120302639A1, “OMEGA 3 FORMULATIONS FOR TREATMENT OF RISK FACTORS FOR CARDIOVASCULAR DISEASE AND PROTECTION AGAINST SUDDEN DEATH” (PIVOTAL THERAPEUTICS INC., priority 2011, published 2012).

Conditions: ALOGPS, as reported by Tetko et al. 2005

| SMILES | theoretical Log P |
| --- | --- |
| CC/C=C\C/C=C\C/C=C\C/C=C\C/C=C\C/C=C\CCC(=O)O [DHA, Docosahexaenoic acid] | 6.83 |
| CC/C=C\C/C=C\C/C=C\C/C=C\C/C=C\CCCC(=O)O [EPA, Eicosapentaenoic acid] | 6.53 |
